The source of these data is the Deep4Chem optical property database.

The data set in a line: solvent given as SMILES.
[1] abbreviates: in O=P(c1ccccc1)(c1ccccc1)c1ccccc1Oc1ccccc1P(=O)(c1ccccc1)c1ccccc1.

`CC(C)c1cc(C(C)C)c(B2c3ccccc3Oc3cc(-n4c5ccccc5c5ccc6c(c7ccccc7n6-c6ccccc6)c54)ccc32)c(C(C)C)c1`: the fluorescence lifetime is 29.6 ns (in CC(C)c1cc(C(C)C)c(-c2ccc(-n3c4ccccc4n4c5ccccc5nc34)nc2)c(C(C)C)c1) and 27 ns under setting [1].

For `O=c1oc2ccccc2cc1-c1ccc(-c2cc3ccccc3oc2=O)cc1`, where the note is “in ClC(Cl)Cl”, the fluorescence lifetime amounted to 1.4 ns.

In the case of `C=Cc1ccc(OC)c(OC)c1`, the fluorescence lifetime is, setting by setting: (in C1CCCCC1) 3.3 ns; (in CC#N) 3.2 ns. `c1ccc(N(c2ccccc2)c2ccc(-c3ccc4c(c3)C3(c5cc(-c6ccc(N(c7ccccc7)c7ccccc7)cc6)ccc5O4)c4ccccc4-c4ccccc43)cc2)cc1` returned a fluorescence lifetime (in ClCCl) of 1.2 ns. Regarding `N#C[Se]CCCCCOc1ccc2ccc(=O)oc2c1`, the fluorescence lifetime runs as follows: (in C1CCCCC1) 0.16 ns; (in C1CCOC1) 1.17 ns; (in C1COCCO1) 0.17 ns; (in CC#N) 0.56 ns; (in CCCCCCC) 0.16 ns; (in CCO) 0.43 ns. For the same compound, the fluorescence lifetime amounted to 1.02 ns (in CN(C)C=O), 0.44 ns (in CO), 1.75 ns (in O) and 1.46 ns (in OCCO).

Consider `C[n+]1ccn(CCCCc2ccc3c(c2)c2ccccc2n3-c2cc(C#N)c(C#N)cc2-n2c3ccccc3c3cc(CCCCn4cc[n+](C)c4)ccc32)c1`, for which the fluorescence lifetime (in CC#N) came to 4.97 ns. `Cc1ccc(-c2ccc(/C=C/c3ccc(Cl)cc3)cn2)nc1` showed a fluorescence lifetime (in CC#N) of 1.01 ns.

`CN(C)c1ccc(C(=Cc2ccc(C#N)cc2)c2ccc(N(C)C)cc2)cc1` registered a fluorescence lifetime (in C1CCOC1) of 7.1 ns.

Where the note is “in O”, `NNC(=O)N1C(=O)c2cc(S(=O)(=O)[O-])cc3c(N)c(S(=O)(=O)[O-])cc(c23)C1=O` had a fluorescence lifetime of 5.7 ns. The compound `CC1(C)c2ccccc2N(c2ccc(C(=C(C#N)C#N)c3ccc(N4c5ccccc5C(C)(C)c5ccccc54)cc3)cc2)c2ccccc21` displayed a fluorescence lifetime (in Cc1ccccc1) of 3.1 ns. Take `CCCCCCOc1ccc2oc3c(c2c1)=CC1=C(c2ccccc2C)c2cc4c5cc(OCCCCCC)ccc5oc4n2[B-](F)(F)[N+]=31`: the fluorescence lifetime was 4.12 ns (in C1CCCCC1), 3.81 ns (in CCOC(C)=O) and 1.67 ns (in CO).

Regarding `Cc1cc(C)c(B(c2ccc(-n3c4ccccc4c4ccccc43)cc2)c2c(C)cc(C)cc2C)c(C)c1`, the fluorescence lifetime (in Cc1ccccc1) turned out to be 3.7 ns. The compound `O=C(O)c1ccc(-c2nc(-c3ccccc3)c3c4ccccc4ccn23)cc1` showed a fluorescence lifetime (in CC#N) of 2.5 ns. In the case of `CCOC(=O)CCCCCn1c2ccc(C)cc2c(=O)c2cc3c(cc21)c(=O)c1cc(C)ccc1n3CCCCCC(=O)OCC`, the fluorescence lifetime (in CO) was 22 ns.

For `CC1=C(c2cccs2)C(C)=[N+]2C1=C(c1ccc(O)cc1)c1c(C)c(-c3cccs3)c(C)n1[B-]2(F)F`, the fluorescence lifetime (in Cc1ccccc1) was found to be 3.8 ns. `Cn1c2ccccc2c2cc(/C=C/C3=[O+][B-](F)(F)OC(/C=C/c4ccc5c(c4)c4ccccc4n5C)=C3c3ccccc3)ccc21` registered a fluorescence lifetime (in ClCCl) of 2.15 ns. `CCNc1cc2oc(=O)cc(C(F)(F)F)c2cc1C`: the fluorescence lifetime (in CC#N) is 7.7 ns.

Compound `c1ccc(Nc2nc(Nc3ccccc3)nc(Nc3ccc4ccc5cccc6ccc3c4c56)n2)cc1` came in with a fluorescence lifetime (in CCCCCCC) of 4.3 ns. `F[B-]1(F)OC(c2ccc(C(F)(F)F)cc2)=Cc2ccc3ccccc3[n+]21` displayed a fluorescence lifetime (in ClC(Cl)Cl) of 0.92 ns. As to `CN(C)c1ccc2cc3ccc(N(C)C)cc3nc2c1`, the fluorescence lifetime (in O) is 2 ns. Consider `Cc1ccc2c(c1)c1cc(C)ccc1n2-c1cccc(-n2c3ccc(C)cc3c3cc(C)ccc32)c1C#N`, for which the fluorescence lifetime (in Cc1ccccc1) was found to be 5.5 ns and the fluorescence lifetime under setting [1] was 6.6 ns.

For the compound `Nc1ncc2nc[nH]c2n1`, the fluorescence lifetime (in O) came out at 11.3 ns.

On to `CN(C)c1cccc2c1-c1ccccc1C2=O`, for which the fluorescence lifetime runs as follows: (in C1CCCCC1) 8 ns; (in CC#N) 4.2 ns; (in c1ccccc1) 10 ns. `CC(C)c1ccc(/C=C/c2nc3ccc(N(C)C)cc3s2)cc1` came in with a fluorescence lifetime (in C1CCCCC1) of 2.04 ns and a fluorescence lifetime (in CC#N) of 3.27 ns. Where the note is “in ClC(Cl)Cl”, `O=Cc1ccc(C#CC(C#Cc2ccc(C=O)o2)=Cc2ccc(C=C(C#Cc3ccc(C=O)o3)C#Cc3ccc(C=O)o3)cc2)o1` had a fluorescence lifetime of 0.6 ns. Under “in CC#N”, `CC1=CC(/C=C/c2ccc(N(C)C)cc2)=[N+]2C1=C(c1ccc(C#CCO[C@@H]3O[C@H](CO)[C@@H](O)C(O)[C@H]3O)cc1)c1c(C)cc(/C=C/c3ccc(N(C)C)cc3)n1[B-]2(F)F` (stereo partly drawn) came in with a fluorescence lifetime of 2.3 ns. Take `c1ccc(-c2ccc(-c3ccc(-n4c5ccccc5c5ccccc54)cc3)c3nsnc23)cc1`: the fluorescence lifetime worked out at 7.52 ns (in C1CCOC1), 5.2 ns (in CC(C)=O), 5.87 ns (in CCCCCC) and 7.2 ns (in CCOCC). As for `COc1ccc2cc(-c3ccc(-c4cc5ccc(OC)cc5oc4=O)cc3)c(=O)oc2c1`, the fluorescence lifetime (in ClC(Cl)Cl) is 1.4 ns. Compound `CC(C)(C)c1ccc(-c2nc3c4ccc(-c5c6ccccc6cc6ccccc56)cc4c4cc(-c5c6ccccc6cc6ccccc56)ccc4c3n2-c2ccc(C(C)(C)C)cc2)cc1` gave a fluorescence lifetime (in ClCCl) of 6.1 ns. In the case of `CCCCCCCCCCCCSc1cc2c3c(ccc4c5c(SCCCCCCCCCCCC)cc6c7c(ccc(c1c34)c75)C(=O)N(C1CCCCC1)C6=O)C(=O)N(C1CCCCC1)C2=O`, under “in ClC(Cl)Cl”, the fluorescence lifetime worked out at 8.5 ns. The compound `Cc1c(C2=[N+]3C(=Cc4c(C)c5ccccc5n4[B-]3(F)F)c3ccccc32)[nH]c2ccccc12` came in with a fluorescence lifetime (in ClCCl) of 1.22 ns. For `COc1ccc2nc(N)sc2c1`, the fluorescence lifetime came out at 4.4 ns (in CC#N) and 3.86 ns (in ClCCl). `CC1=C2c3ccccc3C(c3ccc[nH]3)=[N+]2[B-](F)(F)n2cccc21` showed a fluorescence lifetime (in ClCCl) of 6.71 ns. With `COC(=O)C(NC(=O)OC(C)(C)C)c1ccc2oc(-c3cc(OC)c(OC)cc3OC)nc2c1` (stereo not drawn), the fluorescence lifetime (in CC1CCCCC1) turned out to be 1.27 ns, the fluorescence lifetime (in CC#N) came to 1.78 ns and the fluorescence lifetime (in CO) turned out to be 2.03 ns. Compound `CCC1(CC)c2ccccc2-c2c1c1c(c3c2C(CC)(CC)c2cc(B(c4c(C)cc(C)cc4C)c4c(C)cc(C)cc4C)ccc2-3)C(CC)(CC)c2cc(B(c3c(C)cc(C)cc3C)c3c(C)cc(C)cc3C)ccc2-1` came in with a fluorescence lifetime (in C1CCOC1) of 4.2 ns. Under “in ClCCl”, `CC(C)(C)NC(=O)c1cc2ccccc2c2ccc3c4ccccc4c4ccccc4c3c12` gave a fluorescence lifetime of 3.28 ns.

Regarding `COc1ccc(N2c3cc(OC)ccc3N=c3cc4c(cc32)=Nc2cc(C(C)(C)C)cc(C(C)(C)C)c2O4)cc1`, for the setting “in CCCCCC”, the fluorescence lifetime is 1.14 ns.

With `O=S1c2ccccc2-c2cc(-c3c4ccccc4cc4ccccc34)ccc21` (stereo not drawn), the fluorescence lifetime is, setting by setting: (in C1CCCCC1) 2.4 ns; (in CC#N) 3.5 ns; (in ClCCl) 3.3 ns. Take `c1ccc(/C(=C(\c2ccccc2)c2ccccc2-c2ccccc2)c2ccccc2-c2ccccc2)cc1`: for the setting “in C1CCOC1”, the fluorescence lifetime came out at 4.7 ns. For `Cc1cc2nc3c(=O)n(C)c(=O)n(C)c3nc2cc1C`, the fluorescence lifetime (in CC#N) amounted to 0.64 ns. Consider `CCN(CC)c1ccc2cc(-c3nc4c5ccccc5c5ccccc5c4n3-c3ccc(C(C)(C)C)cc3)c(=O)oc2c1`, for which the fluorescence lifetime (in ClCCl) was found to be 12.6 ns. `C(/C=C/c1ccc(-n2c3ccccc3c3ccccc32)cc1)=C\c1ccncc1` had a fluorescence lifetime (in C1COCCO1) of 1.32 ns and a fluorescence lifetime (in CC#N) of 2.52 ns.

Turning to `CCOC(=O)CN(CC(=O)OCC)c1ccc(-c2cc(-c3ccncc3)nc(-c3ccncc3)c2)cc1`, the fluorescence lifetime was found to be 5.84 ns (in CC#N); 3.77 ns (in CCOC(C)=O); 6.33 ns (in CN(C)C=O); 6.78 ns (in CS(C)=O); 2 ns (in c1ccccc1).
